The values below come from article PMC6325233, “A Novel Actin Binding Drug with In Vivo Efficacy” (Antimicrobial Agents and Chemotherapy, 2018).

Entries after “also recorded” stand apart in the source; their conditions may differ. Read-outs that look alike come from different tables or passages of the source.

The subject of assay [1] is Candida parapsilosis 2006. Description: MIC susceptibility testing (caspofungin-resistant strain). It is filed as cell-based. Details: key to MIC, 50% inhibition: -: indicates absence of isolates with 50% inhibition endpoint. The note with it: CLSI M27-A3. As for the experimental part:
(§1) Occidiofungin was purified from a liquid culture of Burkholderia contaminans MS14 as previously described ([21]). MIC susceptibility testing was performed according to the CLSI M27-A3 and M38-A2 standards for the susceptibility testing of yeasts and filamentous fungi, respectively. S. cerevisiae deletion mutants were obtained from the commercially available BY4741 deletion library (Thermo Scientific).

Assay [2] has as its system Cryptococcus neoformans 19526. The assay is described as above. It is filed as cell-based. Also noted: key to MIC, 50% inhibition: -: indicates absence of isolates with 50% inhibition endpoint. The note with it: CLSI M27-A3; 72 hours. As for the experimental part: as §1
The next assay relates to cancer cell lines. The note with it: several cancer cell lines vs human fibroblast control; cited from earlier work. As for the experimental part: Natural products with in vitro antifungal properties that target the actin cytoskeleton were previously reported ([51]). […] Occidiofungin, on the other hand, is well tolerated at 5 mg/kg or 20 mg/kg when administered intravenously or subcutaneously, respectively ([22], [25]). This dose is much higher than the MIC of occidiofungin against several fungal pathogens. ...

Assay [3] deals with Saccharomyces cerevisiae BY4741. The experiment in a line: MIC susceptibility testing. The class given is cell-based. As for the experimental part:
as §1
The addition of an alkyne reactive group to the primary amine on occidiofungin was performed initially at the Texas A&M Natural Products LINCHPIN Laboratory at Texas A&M University and subsequently at the CPRIT Synthesis and Drug-Lead Discovery Laboratory at Baylor University (see Fig. S1 in the supplemental material). A solution of triethylamine and acetonitrile was prepared by dissolving 10 µl of triethylamine in 11.7 ml of acetonitrile. A stock solution of acetonitrile and the reagents was prepared by adding 2,5-dioxopyrrolidin-1-yl hex-5-ynoate (1.40 mg, 6.69 µmole, 8.2 equivalent) to 1.08 ml of the triethylamine and acetonitrile solution prepared above. Occidiofungin (1 mg, 0.82 µmole, 1 equiv.) was added to the stock solution of acetonitrile and reagents (400 µl) containing triethylamine (0.34 µl, 2.46 µmole, 3 equiv.) and 2,5-dioxopyrrolidin-1-yl hex-5-ynoate ([…], 2.46 µmole, 3 eq). […]

The next assay has as its system F-actin. The experiment in a line: Actin polymerization and depolymerization assays. It is filed as biochemical. Conditions: 20 μg occidiofungin in 20 μL of 1.5% β-cyclodextrin in PBS, pyrene actin.
Assay [4] concerns S. cerevisiae (diploid, BY4743) actin cables. Description: Actin cable visualization, TRITC-labeled phalloidin. The note with it: for Cells without actin cables, Avg / Cells with actin cables, Avg: average of two replicates; for Cells without actin cables, Avg: untreated 25.87; for Cells with actin cables, Avg: untreated 74.13. The class given is cell-based. As for the experimental part:
S. pombe and S. cerevisiae cells (OD600 of 0.6 to 0.8) were incubated with 1× MIC of alkyne-OF at 30°C, with samples removed at 10, 30, and 60 min postincubation. The cells were washed in PBS and fixed with 3.7% formaldehyde. The cells were permeabilized by adding 0.5% Triton X-100. The cells were washed with PBS before the Click reaction with azide-derivatized Alexa Fluor 488 (Click-iT EdU imaging kit; Thermo Fisher Scientific). The cells were visualized with an Olympus FV1000 confocal microscope. A competition assay was carried out by pretreating cells with 1× MIC of the native occidiofungin followed by treatment with alkyne-OF. […] A 6.6 µM concentration of tetramethyl rhodamine isothiocyanate (TRITC)-tagged phalloidin was added to formaldehyde-fixed cells (permeabilized with 0.2% Triton X-100) for 30 min at room temperature. The cells were washed in PBS, added to a concanavalin A-treated glass slides, and overlaid with Vectashield plus DAPI. Images were viewed using a Nikon 50i fluorescence microscope with a 100× oil immersion objective and Texas Red and DAPI filter sets. Random images were captured using a Retiga EXi black and white charge-coupled-device (CCD) camera and Image Q software. All images were captured using the same exposure settings, with the image contrast altered postcapture using CorelDraw.

As usually defined, the MIC is the smallest concentration in the dilution series that meets the test's criterion for growth inhibition. Turning to occidiofungin, the results for the “MIC, 50% inhibition” value in assay [1] (24 hours), in assay [1] (48 hours) and in assay [2] were 2 µg/mL, “-” and “-”, respectively. Also, the figures for the “MIC, 100% inhibition” value in assay [1] (24 hours), in assay [1] (48 hours) and in assay [2] were 4 µg/mL, 4 µg/mL and 2 µg/mL, respectively. The “sensitivity of several cancer cell lines vs human fibroblast cell line” value in the assay on cancer cell lines is “approximately 10 -fold”. Besides, the MIC in assay [3] (CLSI M27-A3, alkyne-OF vs native comparison (S2 Table)) was 0.125 µg/mL; in assay [3] (parent strain of deletion mutants (S4 Table)), 0.25 µg/mL. Moreover, the “effect on polymerization or depolymerization of F-actin” value in the assay with F-actin is given as “no effect on the polymerization or depolymerization properties of F-actin”. In addition, the “Cells with actin cables, %” value in assay [4] is reported as 1.32%; in assay [4] (0.5X MIC, 30 min, replicate 2), 3.36%; in assay [4] (0.5X MIC, 60 min, replicate 1), 0%; in assay [4] (0.5X MIC, 60 min, replicate 2) it was 0.36%. The “Cells without actin cables, Avg” value in assay [4] (0.5X MIC, 30 min, SD 1.45) was 97.66%; in assay [4] (0.5X MIC, 60 min, SD 0.25) it was 99.82%. Also, the “Cells with actin cables, Avg” value came out at 2.34% in assay [4] (0.5X MIC, 30 min, SD 1.45) and 0.18% in assay [4] (0.5X MIC, 60 min, SD 0.25). For the same substance, the “Cells without actin cables, %” value in assay [4] (0.5X MIC, 30 min, replicate 1) is on record as 98.68%; in assay [4] (0.5X MIC, 30 min, replicate 2), 96.64%; in assay [4] (0.5X MIC, 60 min, replicate 1), 100%; in assay [4] (0.5X MIC, 60 min, replicate 2) it was 99.64%. In assay [4] (0.5× MIC, 30 min), the “effect on actin organization” value was “an accumulation of actin patches and/or aggregates of F-actin were observed throughout the treated cells with a concomitant loss of actin cables; also recorded: a loss of actin cables and the accumulation of actin aggregates”.
